Test results: patent publication EP4656642A1, “ESTROGEN RECEPTOR PROTEOLYSIS TARGETING CHIMERA COMPOUND AND USE THEREOF” (GAN & LEE PHARM CO., LTD, priority 2023, dated 2024)

Target: T1, AR protein (Homo sapiens, UniProt P10275, T878A)
T1 construct: host or cells: LNCaP FGC
T1 sequence (P10275 1-920 T878A): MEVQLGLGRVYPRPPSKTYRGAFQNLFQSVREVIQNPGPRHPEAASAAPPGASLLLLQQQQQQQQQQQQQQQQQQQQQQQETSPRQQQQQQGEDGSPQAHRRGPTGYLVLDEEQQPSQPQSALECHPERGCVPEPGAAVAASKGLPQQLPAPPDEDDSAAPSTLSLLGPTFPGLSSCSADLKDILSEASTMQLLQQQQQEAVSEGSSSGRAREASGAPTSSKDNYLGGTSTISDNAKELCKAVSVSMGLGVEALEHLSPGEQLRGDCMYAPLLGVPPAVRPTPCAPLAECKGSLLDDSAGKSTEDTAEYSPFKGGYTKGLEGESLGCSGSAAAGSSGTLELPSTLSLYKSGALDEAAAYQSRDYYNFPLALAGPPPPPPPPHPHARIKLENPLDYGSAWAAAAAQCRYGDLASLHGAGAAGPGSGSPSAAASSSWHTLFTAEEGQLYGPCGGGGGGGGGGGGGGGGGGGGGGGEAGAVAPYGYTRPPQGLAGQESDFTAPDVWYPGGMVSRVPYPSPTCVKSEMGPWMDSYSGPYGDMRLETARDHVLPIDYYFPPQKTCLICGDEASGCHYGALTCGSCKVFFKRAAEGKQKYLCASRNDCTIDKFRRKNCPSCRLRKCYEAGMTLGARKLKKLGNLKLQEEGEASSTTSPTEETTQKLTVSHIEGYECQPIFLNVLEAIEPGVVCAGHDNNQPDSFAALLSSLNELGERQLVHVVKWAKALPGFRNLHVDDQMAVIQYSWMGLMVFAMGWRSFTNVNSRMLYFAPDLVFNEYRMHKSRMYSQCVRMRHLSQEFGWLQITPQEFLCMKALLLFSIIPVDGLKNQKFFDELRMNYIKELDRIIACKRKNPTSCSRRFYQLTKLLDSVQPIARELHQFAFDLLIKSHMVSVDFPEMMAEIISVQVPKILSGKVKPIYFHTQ
Assay: Degradation of AR protein in LNCAP cells (Western blot, 8 h)
Format: cell-based
Settings: LNCaP FGC cells
Description: After 8 h, the culture medium was discarded, and the cells were washed with PBS. After the cells were washed with PBS, RIPA lysis buffer containing 1% Protease Inhibitor Cocktail was added, and the total protein extract was obtained after lysis and centrifugation, and the protein concentration in the extract was detected by BCA method. Protein electrophoresis was carried out by SDS-PAGE, after which the proteins were transferred to PVDF (Millipore Sigma Catalog No. PSRP010R5) membrane by 100V constant voltage electrotransfer for 60 min, and the PVDF membrane was placed in 1×TBST solution with 5% milk and blocked at room temperature for 1h. […] The primary antibody solution was discarded, and the PVDF membrane was washed three times with 1× TBST for 5 min each. […] The secondary antibody solution was discarded, and the PVDF membrane was washed three times with 1× TBST for 5 min each. Western membrane imaging was performed using a dual-color infrared laser imaging system (Licor catalog number Odyssey CLX). Bands were analyzed in grayscale using the software Image Studio. For each sample, GAPDH protein bands were detected as internal reference. The degradation rates of the AR protein for the compounds and positive control sample were calculated based on the grayscale of the protein bands.

| SMILES | Degradation rates of the AR protein in LNCAP cells, 10 nM (%) | Degradation rates of the AR protein in LNCAP cells, 100 nM (%) |
| --- | --- | --- |
| C[C@H]1CC2(CCN(c3ccc(N4CCC(CN5CCC6(CC5)COc5c6ccc6c5C(=O)N(C5CCC(=O)NC5=O)C6)CC4)cc3)CC2)CN1c1ccc(C#N)c(Cl)c1 (stereo partly drawn) [2-103] | 55% | 79% |
| COc1cc(O[C@H]2CC[C@H](NC(=O)c3ccc(N4CCC(C)(CN5CCC6(CC5)COc5c6ccc6c5C(=O)N(C5CCC(=O)NC5=O)C6)CC4)nn3)CC2)ccc1C#N (relative stereo) [2-261] | 53% | 70% |
| CC1(CN2CCC3(CC2)COc2c3ccc3c2C(=O)N(C2CCC(=O)NC2=O)C3)CCN(c2ccc(C(=O)N[C@H]3CC[C@H](Oc4ccc(C#N)c(Cl)c4)CC3)nn2)CC1 (relative stereo) [2-262] | 47% | 68% |
| COc1cc(O[C@H]2C(C)(C)[C@H](NC(=O)c3ccc(N4CCC(C)(CN5CCC6(CC5)COc5c6ccc6c5C(=O)N(C5CCC(=O)NC5=O)C6)CC4)cc3)C2(C)C)ccc1C#N (relative stereo) [2-292] | 43% | 78% |
| N#Cc1ccc(O[C@H]2CC[C@H](NC(=O)c3ccc(N4CCC(F)(CN5CCC6(CC5)COc5c6ccc6c5C(=O)N(C5CCC(=O)NC5=O)C6)CC4)nn3)CC2)cc1Cl (relative stereo) [2-315] | 33% | 44% |
| COc1cc(O[C@H]2CC[C@H](NC(=O)c3ccc(N4CCC(F)(CN5CCC6(CC5)COc5c6ccc6c5C(=O)N(C5CCC(=O)NC5=O)C6)CC4)nn3)CC2)ccc1C#N (relative stereo) [2-316] | 49% | 61% |
| COc1cc(O[C@H]2C(C)(C)[C@H](NC(=O)c3ccc(N4CCC(CN5CCC6(CC5)COc5c6ccc6c5C(=O)N(C5CCC(=O)NC5=O)C6)CC4)cc3)C2(C)C)ccc1C#N (relative stereo) [2-318] | 58% | 73% |
| COC1(CN2CCC3(CC2)COc2c3ccc3c2C(=O)N(C2CCC(=O)NC2=O)C3)CCN(c2ccc(C(=O)N[C@H]3CC[C@H](Oc4ccc(C#N)c(Cl)c4)CC3)nn2)CC1 (relative stereo) [2-263] | 38% | 69% |
| COc1cc(O[C@H]2C(C)(C)[C@H](NC(=O)c3ccc(N4CCC(CN5CCC6(CC5)COc5c6ccc6c5C(=O)N(C5CCC(=O)NC5=O)C6)(OC)CC4)cc3)C2(C)C)ccc1C#N (relative stereo) [2-293] | 62% | 82% |
